Laboratory results as given in ChEMBL document CHEMBL5154853, “Synthesis and Pharmacological Evaluation of New N-Sulfonylureas as NLRP3 Inflammasome Inhibitors: Identification of a Hit Compound to Treat Gout” (J Med Chem, 2022).
Calls of active or inactive are those of the source.

Assays:
[1] = test system: Mus musculus; assay: Antiinflammatory activity in MSU-induced acute gout arthritis in wild type male C57BL/6J mouse model assessed as decrease in paw inflammation at 10 mg/kg, ip measured after 24 hrs relative to control; format: functional; set-up: scale not given: the % may be the effect or the level left
[2] = test system: Mus musculus; assay: Antiinflammatory activity in MSU-induced acute gout arthritis in wild type male C57BL/6J mouse model assessed as decrease in paw inflammation at 3 to 10 mg/kg, ip measured after 24 hrs; format: functional, organism-based; conditions: dose 3-10 mg/kg
[3] = target: NACHT, LRR and PYD domains-containing protein 3 (Mus musculus) (UniProt Q8R4B8); assay: Inhibition of NLRP3 inflammasome activation in LPS-primed mouse BMDM cells assessed as inhibition of IL-1beta cleavage in supernatant at 1 uM pretreated for 15 mins followed by ATP addition for 30 mins by Western blot analysis; format: cell-based; conditions: time 45.0 min
Sequence of NACHT, LRR and PYD domains-containing protein 3 (Mus musculus) (Q8R4B8 whole entry, the tested form may be a part): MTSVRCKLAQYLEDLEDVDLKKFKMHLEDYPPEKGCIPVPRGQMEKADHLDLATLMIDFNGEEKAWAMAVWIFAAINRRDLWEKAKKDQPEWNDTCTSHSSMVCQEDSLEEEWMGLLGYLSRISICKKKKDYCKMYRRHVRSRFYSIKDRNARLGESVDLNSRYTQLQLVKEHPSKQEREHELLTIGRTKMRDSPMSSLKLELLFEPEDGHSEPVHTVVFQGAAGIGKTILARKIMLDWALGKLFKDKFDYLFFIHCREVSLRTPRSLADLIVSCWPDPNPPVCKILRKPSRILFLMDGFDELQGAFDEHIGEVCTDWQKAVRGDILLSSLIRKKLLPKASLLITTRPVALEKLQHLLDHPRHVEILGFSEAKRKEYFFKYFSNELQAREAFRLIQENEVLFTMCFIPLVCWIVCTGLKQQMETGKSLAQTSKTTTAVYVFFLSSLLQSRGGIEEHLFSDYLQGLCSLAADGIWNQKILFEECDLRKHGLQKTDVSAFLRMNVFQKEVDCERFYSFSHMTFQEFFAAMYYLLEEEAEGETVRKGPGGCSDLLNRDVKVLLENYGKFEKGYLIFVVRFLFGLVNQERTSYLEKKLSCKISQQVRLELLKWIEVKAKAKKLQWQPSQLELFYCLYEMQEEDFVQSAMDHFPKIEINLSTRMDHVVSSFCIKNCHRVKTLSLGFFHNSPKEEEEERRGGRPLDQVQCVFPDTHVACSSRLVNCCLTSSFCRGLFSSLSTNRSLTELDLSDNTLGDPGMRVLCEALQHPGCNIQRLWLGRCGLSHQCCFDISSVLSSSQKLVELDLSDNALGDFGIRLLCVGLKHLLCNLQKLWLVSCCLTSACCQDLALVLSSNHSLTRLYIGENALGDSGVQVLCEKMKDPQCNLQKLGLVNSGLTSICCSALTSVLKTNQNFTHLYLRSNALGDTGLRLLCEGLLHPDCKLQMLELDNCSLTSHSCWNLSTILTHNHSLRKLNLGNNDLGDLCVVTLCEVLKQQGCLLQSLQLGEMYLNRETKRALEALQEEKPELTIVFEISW

[4] = test system: Mus musculus; assay: Antiinflammatory activity in MSU-induced acute gout arthritis in NLRP3 knockout male C57BL/6J mouse model assessed as reduction in paw inflammation at 3 to 10 mg/kg, ip measured after 24 hrs relative to control; format: functional; set-up: scale not given: the % may be the effect or the level left; conditions: dose 3-10 mg/kg
[5] = test system: J774.A1; assay: Cytotoxicity against mouse J774.A1 cells assessed as reduction in cell viability at 10 uM measured after 24 hrs by MTT assay relative to control; format: toxicity, cell-based; conditions: j774.a1, 24 h
[6] = test system: Mus musculus; assay: Antiinflammatory activity in MSU-induced acute gout arthritis in NLRP3 knockout female C57BL/6J mouse model assessed as reduction in paw inflammation at 3 to 10 mg/kg, ip measured after 24 hrs relative to control; format: functional; set-up: scale not given: the % may be the effect or the level left; conditions: dose 3-10 mg/kg
[7] = test system: AML12; assay: Cytotoxicity against mouse AML12 cells assessed as reduction in cell viability at 0.01 to 30 uM measured after 24 hrs by MTT assay; format: toxicity, cell-based; conditions: aml12, 24 h, dose 0.01-30 µM
[8] = target: NACHT, LRR and PYD domains-containing protein 3 (Mus musculus) (UniProt Q8R4B8); assay: Inhibition of NLRP3 inflammasome oligomerization in LPS-primed mouse BMDM cells assessed as prevention of ASC specks formation at 1 uM pretreated for 15 mins followed by MSU stimulation for 30 mins by DAPI staining based confocal microscopic analysis; format: cell-based; conditions: time 45.0 min
[9] = target: NACHT, LRR and PYD domains-containing protein 3 (Mus musculus) (UniProt Q8R4B8); assay: Inhibition of NLRP3 inflammasome activation in LPS-primed mouse BMDM cells assessed as inhibition of caspase-1 cleavage in supernatant at 1 uM pretreated for 15 mins followed by ATP addition for 30 mins by Western blot analysis; format: cell-based; conditions: time 45.0 min
[10] = test system: Mus musculus; assay: Antiinflammatory activity in MSU-induced acute gout arthritis in wild type female C57BL/6J mouse model assessed as decrease in paw inflammation at 3 mg/kg, ip measured after 24 hrs relative to control; format: functional; set-up: scale not given: the % may be the effect or the level left
[11] = test system: Mus musculus; assay: Antiinflammatory activity in MSU-induced acute gout arthritis in wild type male C57BL/6J mouse model assessed as decrease in paw inflammation at 3 mg/kg, ip measured after 24 hrs relative to control; format: functional; set-up: scale not given: the % may be the effect or the level left
[12] = target: NACHT, LRR and PYD domains-containing protein 3 (Mus musculus, UniProt Q8R4B8); assay: Inhibition of NLRP3 inflammasome activation in LPS-primed mouse BMDM cells assessed as reduction in ATP induced IL-1beta release pretreated for 15 mins followed by ATP stimulation for 30 mins by ELISA; format: cell-based
Sequence of NACHT, LRR and PYD domains-containing protein 3 (Q8R4B8 whole entry, the tested form may be a part): as above

[13] = test system: Mus musculus; assay: Antiinflammatory activity in MSU-induced acute gout arthritis in wild type female C57BL/6J mouse model assessed as decrease in paw inflammation at 10 mg/kg, ip measured after 24 hrs relative to control; format: functional; set-up: scale not given: the % may be the effect or the level left
[14] = target: NACHT, LRR and PYD domains-containing protein 3 (Mus musculus) (UniProt Q8R4B8); assay: Inhibition of NLRP3 inflammasome oligomerization in LPS-primed mouse BMDM cells assessed as prevention of ASC specks formation at 1 uM pretreated for 15 mins followed by ATP stimulation for 30 mins by DAPI staining based confocal microscopic analysis; format: cell-based; conditions: time 45.0 min
[15] = test system: J774.A1; assay: Cytotoxicity against mouse J774.A1 cells assessed as reduction in cell viability at 30 uM measured after 24 hrs by MTT assay relative to control; format: toxicity, cell-based; conditions: j774.a1, 24 h
[16] = test system: Mus musculus; assay: Analgesic activity in MSU-induced mechanical hyperalgesia in wild type C57BL/6J mouse model assessed as decrease in paw withdrawal threshold at 10 mg/kg, ip measured after 24 hrs by von Frey test (Rvb= 72%); format: functional; set-up: scale not given: the % may be the effect or the level left
[17] = test system: Mus musculus; assay: Analgesic activity in MSU-induced mechanical hyperalgesia in wild type C57BL/6J mouse model assessed as decrease in paw withdrawal threshold at 3 mg/kg, ip measured after 24 hrs by von Frey test (Rvb= 72%); format: functional; set-up: scale not given: the % may be the effect or the level left
[18] = test system: J774.A1; assay: Cytotoxicity against mouse J774.A1 cells assessed as reduction in cell viability at 0.01 to 3 uM measured after 24 hrs by MTT assay; format: toxicity, cell-based; conditions: j774.a1, 24 h, dose 0.01-3 µM
[19] = test system: Mus musculus; assay: Antiinflammatory activity in MSU-induced acute gout arthritis in NLRP3 knock out C57BL/6J mouse model assessed as reduction in paw swelling at 3 mg/kg, ip measured after 24 hrs relative to control; format: functional; set-up: scale not given: the % may be the effect or the level left
[20] = test system: Mus musculus; assay: Antiinflammatory activity in MSU-induced acute gout arthritis in wild type male C57BL/6J mouse model assessed as decrease in paw inflammation at 3 mg/kg, ip measured after 24 hrs; format: functional, organism-based

inhibition [3] | inhibition [8] | inhibition [9] | IC50 [12] | inhibition [14] | Compound | Activity [1] | Activity [2] | Activity [4] | Activity [5] | Activity [6] | Activity [7] | Activity [10] | Activity [11] | Activity [13] | Activity [15] | Activity [16] | Activity [17] | Activity [18] | Activity [19] | Activity [20]
Active | Active | Active | 0.23 nM | Active | Cc1cc(C)cc(NC(=O)[N-]S(=O)(=O)c2cc(C(C)(C)O)co2)c1.[Na+] | 66% | Active | 65% | 20% | 60% | Non-Toxic | 33% | 40% | 52% | 20% | 19% | 47% | Non-Toxic |  | 
 |  |  | 0.39 nM |  | CC(C)(O)c1coc(S(=O)(=O)NC(=O)Nc2c3c(cc4c2CCC4)CCC3)c1 |  |  |  | 30% |  | Non-Toxic |  |  |  | 30% |  |  | Non-Toxic | 33% | Active
